For 8 compounds, Activity and IC50 results are on record in ChEMBL document CHEMBL5257106, “Design, synthesis, and biological evaluation of novel HDAC inhibitors with a 3-(benzazol-2-yl)quinoxaline framework” (Bioorg Med Chem Lett, 2023).

Data set [1] deals with HCT-116. Description: Induction of apoptosis in human HCT-116 cells assessed as late apoptotic cells at 1 uM incubated for 24 hrs by Annexin V-FITC/PI staining based flow cytometry analysis (reference value: 0.323%). In kind it is functional.
Data set [2] concerns HCT-116. The data set can be described thus: Induction of cell cycle arrest in human HCT-116 assessed as decrease in G0/G1 phase cells at 1 uM incubated for 48 hrs by flow cytometric analysis (reference value: 63.51%). In kind it is functional. Also noted: scale not given: the % may be the effect or the level left.
Data set [3] concerns HCT-116. The data set can be described thus: Induction of cell cycle arrest in human HCT-116 assessed as increase in G2/M phase cells at 1 uM incubated for 48 hrs by flow cytometric analysis (reference value: 23.70%). In kind it is functional.
In data set [4] the test system is HCT-116. The data set can be described thus: Induction of apoptosis in human HCT-116 cells assessed as viable cells at 1 uM incubated for 24 hrs by Annexin V-FITC/PI staining based flow cytometry analysis (reference value: 93.2%). In kind it is functional.
In data set [5] the test system is HCT-116. Description: Induction of apoptosis in human HCT-116 cells assessed as early apoptotic cells at 1 uM incubated for 24 hrs by Annexin V-FITC/PI staining based flow cytometry analysis (reference value: 6.50%). In kind it is functional.
Data set [6] has as its system HCT-116. The data set can be described thus: Induction of cell cycle arrest in human HCT-116 assessed as S phase cells at 1 uM incubated for 48 hrs by flow cytometric analysis (reference value: 12.79%). In kind it is functional.
Data set [7] has as its system HCT-116. The data set can be described thus: Induction of apoptosis in human HCT-116 cells assessed as necrotic cells at 1 uM incubated for 24 hrs by Annexin V-FITC/PI staining based flow cytometry analysis (reference value: 0.00%). In kind it is functional.
For data set [8], the system named is HCT-116. Description: Induction of apoptosis in human HCT-116 cells assessed as total apoptotic cells at 1 uM incubated for 24 hrs by Annexin V-FITC/PI staining based flow cytometry analysis (reference value: 6.823%). In kind it is functional.
The test system of another data set is PANC-1. Description: Antiproliferative activity against human PANC-1 cells assessed as inhibition of cell growth by MTT assay. In kind it is functional, cell-based.
A short description of data set [9]: Cytotoxicity against HUVEC cells assessed as inhibition of cell growth by MTT assay. Conditions: human.
A further data set deals with A2780. Description: Antiproliferative activity against human A2780 cells assessed as inhibition of cell growth by MTT assay. In kind it is functional, cell-based.
The subject of another data set is MCF7. Description: Antiproliferative activity against human MCF7 cells assessed as inhibition of cell growth by MTT assay. In kind it is functional, cell-based.
For data set [10], the system named is HCT-116. The data set can be described thus: Antiproliferative activity against human HCT-116 cells assessed as inhibition of cell growth by MTT assay. In kind it is functional, cell-based.
A further data set deals with RS4-11. The data set can be described thus: Antiproliferative activity against human RS4-11 cells assessed as inhibition of cell growth by MTT assay. In kind it is functional, cell-based.
For the next data set, the system named is HL-60. Description: Antiproliferative activity against human HL-60 cells assessed as inhibition of cell growth by MTT assay. In kind it is functional, cell-based.
The next data set has as its system K562. The data set can be described thus: Antiproliferative activity against human K562 cells assessed as inhibition of cell growth by MTT assay. In kind it is functional, cell-based.

In the case of `O=C(CCCCCCC(=O)Nc1ccccc1)NO` [VORINOSTAT], the Activity was 6.59% with HCT-116 [1]; 58.11% in the data set with HCT-116 [2]; 30.87% with HCT-116 [3]; 58.4% with HCT-116 [4]; 34.9% in the data set with HCT-116 [5]; 11.02% in the data set with HCT-116 [6]. In addition, the Activity with HCT-116 [7] came out at 0.146%; in the data set on HCT-116 [8] it was 41.49%.
As to `Nc1ccccc1NC(=O)CCCCCNc1nc2ccccc2nc1-c1nc2ccccc2o1`, the IC50 amounted to 11.2 µM in the data set with PANC-1; 15.3 µM in data set [9]; 12.6 µM with A2780; 9.36 µM in the data set with MCF7; 9.94 µM with HCT-116 [10].
With `Nc1ccccc1NC(=O)CCCCCCCNc1nc2ccccc2nc1-c1nc2ccccc2o1`, the IC50 in the data set with PANC-1 is 10.5 µM; in data set [9], 21.5 µM; in the data set on A2780 it was 7.13 µM; with MCF7, 12.5 µM; with HCT-116 [10] it was 9.08 µM.
Taken in the same sequence, the figures for `O=C(CCCNc1nc2ccccc2nc1-c1nc2ccccc2o1)NO` were 3.68 µM, 24 µM, 6.29 µM, 4.98 µM and 4.59 µM.
For `Nc1ccccc1NC(=O)CCCNc1nc2ccccc2nc1-c1nc2ccccc2o1`, in that order: 21.6 µM, 27.2 µM, 23.9 µM, 33.5 µM and 17.2 µM.
For `O=C(CCCCCCCNc1nc2ccccc2nc1-c1nc2ccccc2o1)NO`, the IC50 amounted to 0.89 µM with RS4-11; 0.89 µM with HL-60; 0.89 µM in the data set on K562; 2.87 µM with PANC-1; 17.4 µM in [9]; 3.27 µM in the data set on A2780. The IC50 in the data set with MCF7 came to 1.52 µM; in the data set on HCT-116 [10], 3.04 µM.
On to `Nc1ccccc1NC(=O)CCCCCCNc1nc2ccccc2nc1-c1nc2ccccc2o1`, for which the IC50 in the data set with PANC-1 turned out to be 11 µM; in data set [9] it was 16.7 µM; with A2780 it was 17.9 µM; in the data set on MCF7 it was 7.33 µM; with HCT-116 [10], 6.51 µM.
`O=C(CCCCCNc1nc2ccccc2nc1-c1nc2ccccc2o1)NO`: the IC50 turned out to be 1.92 µM with PANC-1; 16.4 µM in data set [9]; 4.07 µM with A2780; 3.69 µM in the data set with MCF7; 2.44 µM with HCT-116 [10].
